Data taken from PMC5626944 (Frontiers in Pharmacology, 2017).

How the values were obtained:
Bradykinin, BK2 = tested on: T1, Bradykinin, BK2; experiment: NovaScreen competition binding; settings: 1 µM
T1 construct: PerkinElmer – Caliper Life Sciences (NovaScreen service)

GABA-B = tested on: T2, GABA-B; experiment: NovaScreen competition binding; settings: 1 µM
T2 construct: PerkinElmer – Caliper Life Sciences (NovaScreen)

GABA A, Agonist Site = experiment: NovaScreen competition binding; settings: 1 µM
Serotonin, 5HT7 (h) = experiment: NovaScreen competition binding; design: species or system human; settings: 1 µM
[1] = In vitro metabolism in microsomes; type: in vitro ADME; settings: human microsomes
Muscarinic, M3 (h) = experiment: NovaScreen competition binding; design: species or system human; settings: 1 µM
[2] = tested on: Calcium Channel, Type L (Dihydropyridine Site); experiment: NovaScreen competition binding; settings: 1 µM
[3] = tested on: hERG potassium channel (IKr); experiment: NovaScreen competition binding; design: species or system human; settings: human, probe [3H]Astemizole, [3H]Astemizole
[4] = tested on: Potassium Channel, I[Kr] (hERG) (h); experiment: NovaScreen competition binding; design: species or system human; settings: 1 µM
Calcium Channel, Type N = experiment: NovaScreen competition binding; settings: 1 µM
[5] = tested on: Glutamate, NMDA, Phencyclidine Site (Ionotropic); experiment: NovaScreen competition binding; settings: 1 µM
CYP2D6 = experiment: Turnover by recombinantly expressed human cytochrome P450 isoforms; type: in vitro ADME; settings: 100 pmol/mL enzyme, 37 °C
Protocol: (§1) S2 Table. In vitro metabolism of TC299423, compared w ith varenicline.
(§2) Human Rat microsomes Turnover by human cytochrome P450 isoforms […]
(§3) The assay mixtures (final incubation volume of 125 μL) in 0.255 M phosphate buffer with 0.575% (w/v) KCl (pH 7.4) contained PiB (1.0 μM), […] a recombinantly expressed cytochrome P450 enzyme preparation (1A2, 2C9, 2C19, 2D6, 3A4, and FMO3) at 100 pmol/mL. After a 10 min preincubation at 37 °C, the reaction was initiated by addition of 2.0 mM NADPH and incubated for 60 min. The reactions were terminated by the addition of two volumes of DMSO. Samples were subsequently centrifuged at 4,000 rpm for 10 min. From the resulting supernatant, 10 μ L was analyzed by liquid chromatography/tandem mass spectrometry (LC-MS/MS). Control experiments were performed by substituting the active enzyme preparation by cell preparations containing no recombinant human CYP. a, Data for clearance are given as μL /min/mg protein. […]
(§4) c, Data for cytochrome P450 turnover and for human flavin- containing monooxygenase 3 (FMO3) are given as percent decline over 60 min.

CYP2C9 = experiment: as above; type: in vitro ADME; settings: 100 pmol/mL enzyme, 37 °C
Protocol: as §1, §2, §3, §4

CYP2C19 = experiment: as above; type: in vitro ADME; settings: 100 pmol/mL enzyme, 37 °C
Protocol: as §1, §2, §3, §4

CYP1A2 = experiment: as above; type: in vitro ADME; settings: 100 pmol/mL enzyme, 37 °C
Protocol: as §1, §2, §3, §4

CYP3A4 = experiment: as above; type: in vitro ADME; settings: 100 pmol/mL enzyme, 37 °C
Protocol: as §1, §2, §3, §4

Adrenergic, Beta 1 (h) = experiment: NovaScreen competition binding; design: species or system human; settings: 1 µM
Histamine, H2 = tested on: T3, Histamine, H2; experiment: NovaScreen competition binding; settings: 1 µM
T3 construct: PerkinElmer – Caliper Life Sciences (NovaScreen)

Serotonin, 5HT5A (h) = experiment: NovaScreen competition binding; design: species or system human; settings: 1 µM
WT mice = experiment: Marble burying assay; type: in vivo, mouse; settings: 0.3 mg/kg ip
Kinase, Protein, PKA (h) = tested on: T4, Kinase, Protein, PKA (h); experiment: NovaScreen enzyme assay; type: biochemical, human; settings: 1 µM
T4 construct: PerkinElmer – Caliper Life Sciences (NovaScreen service)

[6] = biological target: Glutamate,NMDA,Glycine (Stry-insens Site) (Ionot (Rattus norvegicus, UniProt P35439)); experiment: NovaScreen competition binding
Leukotriene, LTB4 (BLT) = experiment: NovaScreen competition binding; settings: 1 µM
male Wistar rats = experiment: Rat responding for food rewards; type: in vivo; settings: 0.01, 0.025, 0.05, 0.08 mg/kg ip, 20 min before session
Description: Operant chambers (Med Associates, East Fairfield, VT, United States) were used for food delivery and the intravenous self-administration (IVSA) of nicotine.
For IV catheter implantation, the rats were anesthetized using 1–3% isoflurane inhalation in oxygen and surgically prepared with catheters in the left jugular vein ([Kenny et al., 2008]). The catheter was passed subcutaneously to a polyethylene assembly mounted on the animals’ back. Prior to training, rats were food-restricted so that their body weight was approximately ∼85% that of free-feeding rats. They were then trained to press an active lever for 45 mg food pellets on a fixed ratio 5 time-out 20 s (FR5TO20) schedule of reinforcement. […] Pressing this lever was recorded but was not associated with scheduled consequence. Rats were permitted to respond for food rewards until a reliable response was achieved, defined as >90 pellets earned per 1 h session for three consecutive sessions. Rats were then permitted to respond for food (n = 8) or for nicotine infusions (n = 9) during 1 h daily sessions under the FR5TO20 schedule. […]
Twenty min after injection, rats were placed in the operant boxes and responding for food rewards or nicotine infusions was recorded. […]

Chain of Glutamate,NMDA,Glycine (Stry-insens Site) (Ionot (P35439 394-863 limits assumed): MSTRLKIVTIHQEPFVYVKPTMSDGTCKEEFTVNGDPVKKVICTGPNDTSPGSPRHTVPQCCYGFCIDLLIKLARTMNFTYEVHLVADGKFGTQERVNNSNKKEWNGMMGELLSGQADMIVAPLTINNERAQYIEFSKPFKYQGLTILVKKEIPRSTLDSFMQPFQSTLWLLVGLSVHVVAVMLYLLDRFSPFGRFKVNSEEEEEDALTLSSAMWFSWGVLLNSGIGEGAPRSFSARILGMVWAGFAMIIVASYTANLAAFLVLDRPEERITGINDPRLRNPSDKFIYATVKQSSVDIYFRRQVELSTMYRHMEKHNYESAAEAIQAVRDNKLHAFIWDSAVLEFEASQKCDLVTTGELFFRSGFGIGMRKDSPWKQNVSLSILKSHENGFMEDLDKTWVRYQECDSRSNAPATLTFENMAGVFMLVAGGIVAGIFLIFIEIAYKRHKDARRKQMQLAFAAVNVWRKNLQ

Q: Which results are given for `C1=C(/c2cncnc2)CCCNCC/1` [TC299423, (E)-5-(pyrimidin-5-yl)-1,2,3,4,7,8-hexahydroazocine]?
A: Hit (Bradykinin, BK2): FALSE; Inhibition (Bradykinin, BK2; [3H]Bradykinin): 32.29%; Hit (GABA-B): FALSE; Inhibition (GABA-B; [3H]CGP 54626A): -2.43%; Hit (GABA A, Agonist Site): FALSE; Inhibition (GABA A, Agonist Site; [3H]GABA): -2.66%; Hit (Serotonin, 5HT7 (h)): FALSE; Inhibition (Serotonin, 5HT7 (h); [3H]LSD): -2.10%; Half-life compared to varenicline [1]: ~7 fold; half-life [1]: 4.75 h; microsomal CLint ([1]; read-out: Clearance): 5 µL/min/mg; Hit (Muscarinic, M3 (h)): FALSE; Inhibition (Muscarinic, M3 (h); [3H]Scopolamine, N-Methyl): -4.77%; Hit [2]: FALSE; Inhibition ([2]; [3H]Nitrendipine): -3.91%; inhibition at 1 µM [3]: 14.5%; Hit [4]: FALSE; Hit (Calcium Channel, Type N): FALSE; Inhibition (Calcium Channel, Type N; [125I]-Conotoxin GVIA): -0.60%; Hit [5]: FALSE; Inhibition ([5]; [3H]TCP): 7.71%; Turnover by CYP2D6 (CYP2D6): 42 percent decline over 60 min; Turnover by CYP2C9 (CYP2C9): 8 percent decline over 60 min; Turnover by CYP2C19 (CYP2C19): 4 percent decline over 60 min; Turnover by CYP1A2 (CYP1A2): 3 percent decline over 60 min; Turnover by CYP3A4 (CYP3A4): 7 percent decline over 60 min; Hit (Adrenergic, Beta 1 (h)): FALSE; Inhibition (Adrenergic, Beta 1 (h); [125I] (-) Iodocyanopindolol): 11.21%; Hit (Histamine, H2): FALSE; Inhibition (Histamine, H2; [125I]-Aminopotentidine): 6.50%; Hit (Serotonin, 5HT5A (h)): FALSE; Inhibition (Serotonin, 5HT5A (h); [3H]-LSD): 1.24%; Marbles buried compared with saline (WT mice): significantly fewer marbles; Marbles buried compared with varenicline (WT mice; p < 0.001): fewer marbles; Hit (Kinase, Protein, PKA (h)): FALSE; Inhibition (Kinase, Protein, PKA (h); substrate Fluorescein-labeled peptide): -5.00%; Hit ([6]; 1 µM): FALSE; inhibition at 1 µM ([6]; [3H]-MDL-105,519): 4.34%; Hit (Leukotriene, LTB4 (BLT)): FALSE; Inhibition (Leukotriene, LTB4 (BLT); [3H]LTB4): 29.86%; Responding for food pellets vs vehicle (male Wistar rats): no statistically significant changes
